Source: paper PMC8151276, “An Integrated Approach toward NanoBRET Tracers for Analysis of GPCR Ligand Engagement” (Molecules, 2021)

Tests used:
Type in all cases: binding
ADRA2C = molecular target: T1, ADRA2C (Homo sapiens, UniProt P18825); experiment: NanoBRET screen HiBiT-ADRA2C in HEK293; details: ADRA2C
T1 construct: purchased Promega (in-house HiBiT-GPCR construct library, NanoBRET)
T1 sequence (P18825 1-462): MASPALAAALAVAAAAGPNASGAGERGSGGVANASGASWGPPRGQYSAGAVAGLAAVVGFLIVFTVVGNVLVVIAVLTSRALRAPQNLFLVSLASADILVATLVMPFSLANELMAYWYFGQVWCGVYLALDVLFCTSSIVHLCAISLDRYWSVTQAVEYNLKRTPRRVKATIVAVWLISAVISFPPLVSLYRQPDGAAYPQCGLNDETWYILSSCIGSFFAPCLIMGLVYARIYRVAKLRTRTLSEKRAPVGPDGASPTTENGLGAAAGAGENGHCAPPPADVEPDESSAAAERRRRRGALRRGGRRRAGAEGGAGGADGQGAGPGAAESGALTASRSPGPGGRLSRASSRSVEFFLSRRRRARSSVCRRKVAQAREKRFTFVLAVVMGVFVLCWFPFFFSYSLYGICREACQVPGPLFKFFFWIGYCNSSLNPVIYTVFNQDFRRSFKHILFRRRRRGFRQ
Description: (§1) Each tracer candidate was screened across the entire library of HiBiT-GPCR constructs using NanoBRET as the detection modality. As depicted in Figure 4A, the specificity of interactions was evaluated through decrease in BRET due to competitive displacement of a bound tracer by excess parental compound. Each tracer was analyzed for binding to each HiBiT-GPCR fusion in the absence and in the presence of competing parental compound. Briefly, HEK293 cells were transfected with HiBiT-GPCR constructs diluted into promoterless DNA to reduce expression and maximize translocation to the cell surface. Each tracer candidate was then screened at concentrations of 1 μM and 0.1 μM across cells expressing these fusions. Cells were treated for 1.5 h with tracer either alone or in the presence of 20 μM competing parental compound (i.e., control). BRET was measured upon addition of purified LgBiT and subsequent complementation with HiBiT genetically fused to a GPCR. The specificity of interactions was assessed through a decrease in BRET signal due to competitive displacement of the bound tracer. To further gauge the robustness of these interactions, the fold response over the control (i.e., BRETtracer/BRETcontrol) was calculated. We chose a 1.5-fold response, which translates to ≥7-fold signal over noise as the minimal threshold required to score an interaction as positive. […]. Below we highlight the screening results obtained for our exemplary fluorescent tracers based on Clozapine, Amitriptyline and AZD1283.
(§2) HiBiT-GPCR DNA constructs were diluted in 10 mM Tris pH 8 to a final concentration of 0.01 μg/μL, arrayed in 96-well plates and stored at −20 °C. For transfection, HEK293 cells were suspended in Opti-MEM (without phenol red) supplemented with 2% fetal bovine serum (Seradigm) and 100 units/mL penicillin–streptomycin (Gibco) at a final concentration of 220,000 cells/mL and dispensed into white 96-well plates at 90 μL/well. Subsequent transfections and screens were carried using an Agilent Bravo Automated Liquid Handling Platform. First, the 96-well HiBiT DNA arrays were diluted 25-fold in Opti-MEM (without serum or phenol red) to a final concentration of 0.0004 μg/μL and 20 μL of the diluted DNAs were transferred into new 96-well plates. Next, promoterless carrier DNA (1 μg/μL) was diluted 25-fold (0.04 μg/μL) and then dispensed into the diluted arrays at 20 μL/well. Following brief mixing, Viafect transfection reagent (Promega) diluted 16-fold into Opti-MEM was dispensed into the plates at 40 μL/well. After mixing by pipetting, plates were incubated for 10 min on the pipetting station deck. The DNA-transfection reagent complexes were then added to plates containing cells. To facilitate the screen, 10 μL of DNA-transfection reagent complexes were added in duplicates to the top 4 and bottom 4 rows, resulting in two identical 48-well arrays per plate. Plates with transfected cells were incubated for 18–20 h at 37 °C/5% CO2. A screen of each tracer across the entire library using two different concentrations requires duplicate plates of transfected cells. Depending on the number of tracers being screened, transfections can be scaled up using the same ratios. The next day, for each tracer, four 20× screening solutions in tracer dilution buffer (Promega) were prepared: two duplicates at final concentration of 20 μM and two duplicates at a final concentration of 2 μM. A competing unmodified compound was added to one of each duplicate at a final concentration of 400 μM. The four resulting solutions were diluted 4-fold in Opti-MEM without serum or phenol red to generate 5× solutions (5 µM and 0.5 µM tracer +/− 100 μM competing compound). To screen the library, a BioTek MultiFlo FX liquid dispenser was used to dispense 22.5 µL of tracer solution to the top 4 rows and 22.5 µL tracer + competing compound solution to the 4 bottom rows. Plates were briefly mixed on an orbital shaker and incubated for 1.5 h at room temperature. […]

CXCR2 = molecular target: T2, CXCR2 (Homo sapiens, UniProt P25025); experiment: NanoBRET screen HiBiT-CXCR2 in HEK293; details: CXCR2
T2 construct: purchased Promega (in-house HiBiT-GPCR construct library, NanoBRET)
T2 sequence (P25025 1-360): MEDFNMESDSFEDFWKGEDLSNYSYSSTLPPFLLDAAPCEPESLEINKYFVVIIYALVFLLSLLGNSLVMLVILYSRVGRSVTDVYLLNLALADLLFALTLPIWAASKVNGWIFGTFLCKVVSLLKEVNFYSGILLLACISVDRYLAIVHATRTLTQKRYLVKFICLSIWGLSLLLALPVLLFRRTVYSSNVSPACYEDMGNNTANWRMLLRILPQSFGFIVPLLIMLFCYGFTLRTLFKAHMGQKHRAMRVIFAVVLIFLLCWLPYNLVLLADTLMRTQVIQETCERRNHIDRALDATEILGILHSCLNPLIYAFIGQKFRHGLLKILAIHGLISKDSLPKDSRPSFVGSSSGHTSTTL
Description: as §1, §2

P2RY2 = molecular target: T3, P2RY2 (Homo sapiens, UniProt P41231); experiment: NanoBRET screen HiBiT-P2RY2 in HEK293; details: P2RY2
T3 construct: purchased Promega (in-house HiBiT-GPCR construct library, NanoBRET)
Description: as §1, §2

T3 sequence (P41231 whole entry): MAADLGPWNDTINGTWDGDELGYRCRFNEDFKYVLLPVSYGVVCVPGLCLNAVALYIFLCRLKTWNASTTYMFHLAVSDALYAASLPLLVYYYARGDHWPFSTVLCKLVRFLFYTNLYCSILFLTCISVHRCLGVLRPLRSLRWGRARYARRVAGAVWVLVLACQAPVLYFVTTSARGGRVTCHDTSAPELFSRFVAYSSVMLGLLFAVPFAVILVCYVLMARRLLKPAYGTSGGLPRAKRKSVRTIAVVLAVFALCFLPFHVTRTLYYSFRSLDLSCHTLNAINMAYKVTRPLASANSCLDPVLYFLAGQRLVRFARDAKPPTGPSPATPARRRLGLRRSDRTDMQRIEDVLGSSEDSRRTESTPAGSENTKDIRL

Row | SMILES | NanoBRET Fold Response (ADRA2C; tracer 0.1μM) | NanoBRET Fold Response (ADRA2C; tracer 1μM) | NanoBRET Fold Response (CXCR2; tracer 0.1μM) | NanoBRET Fold Response (CXCR2; tracer 1μM) | NanoBRET Fold Response (P2RY2; tracer 0.1μM) | NanoBRET Fold Response (P2RY2; tracer 1μM) | NanoBRET Fold Response (ADRA2C; 0.1μM) | NanoBRET Fold Response (ADRA2C; 1μM) | NanoBRET Fold Response (CXCR2; 0.1μM) | NanoBRET Fold Response (CXCR2; 1μM) | NanoBRET Fold Response (P2RY2; 0.1μM) | NanoBRET Fold Response (P2RY2; 1μM)
1 | O=C(CCc1ccc2n1[B-](F)(F)[N+]1=C(c3ccc[nH]3)C=CC1=C2)NCc1ccc(C(=O)NCCOCCC(=O)N[C@@H]2CC[C@@]3(O)[C@H]4Cc5ccc(O)c6c5[C@@]3(CCN4CC3CC3)[C@H]2O6)cc1 [Naltrexone-3-NB590] | 0.99 | 1.05 | 0.81 | 0.78 | 0.90 | 1.10 | – | – | – | – | – | –
2 | Cc1cc2c(s1)Nc1ccccc1N=C2N1CCN(CCCNC(=O)CCOCCOCCOCCOCCNC(=O)CCc2ccc3n2[B-](F)(F)[N+]2=C(c4ccc[nH]4)C=CC2=C3)CC1 [Olanzapine-a-2-NB590] | 0.97 | 1.50 | 0.97 | 1.08 | 0.95 | 1.13 | – | – | – | – | – | –
3 | O=C(CCc1ccc2n1[B-](F)(F)[N+]1=C(c3ccc[nH]3)C=CC1=C2)NCc1ccc(C(=O)NCCOCCOCCNCC(O)COc2cccc3ccccc23)cc1 (centres unmarked) [Propranolol-3-NB590] | – | – | – | – | – | – | 0.95 | 1.05 | 1.07 | 1.03 | 1.07 | 1.03
4 | O=C(CCc1ccc2n1[B-](F)(F)[N+]1=C(c3ccc[nH]3)C=CC1=C2)NCCOCCOCCNC(=O)OCCOCCN1CCN(C2=Nc3ccccc3Sc3ccccc32)CC1 [Quetiapine-a-2-NB590] | – | 1.42 | 1.03 | 0.97 | 1.07 | 0.95 | – | – | – | – | – | –
5 | Cc1nc2n(c(=O)c1CCN1CCC(c3noc4cc(F)ccc34)CC1)CCCC2OC(=O)NCCOCCOCCOCCOCCNC(=O)CCc1ccc2n1[B-](F)(F)[N+]1=C(c3ccc[nH]3)C=CC1=C2 (centres unmarked) [Risperidone-2-NB590] | 1.59 | 1.37 | 1.09 | 0.99 | 1.08 | 0.86 | – | – | – | – | – | –
6 | CC(C)N(CC[C@H](c1ccccc1)c1cc(CCNC(=O)CCOCCOCCOCCOCCNC(=O)CCc2ccc3n2[B-](F)(F)[N+]2=C(c4ccc[nH]4)C=CC2=C3)ccc1O)C(C)C [Tolterodine-2-NB590] | 0.85 | 1.04 | 0.96 | 0.98 | 1.06 | 1.07 | – | – | – | – | – | –
7 | CC(C)N(CC[C@H](c1ccccc1)c1cc(CCNC(=O)c2ccc(CNC(=O)CCc3ccc4n3[B-](F)(F)[N+]3=C(c5ccc[nH]5)C=CC3=C4)cc2)ccc1O)C(C)C [Tolterodine-BZ-NB590] | 1.09 | 1.11 | 0.99 | 1.06 | 1.02 | 1.04 | – | – | – | – | – | –
8 | CCCn1c(=O)c2[nH]c(-c3ccc(OCC(=O)NCCNC(=O)CCOCCNC(=O)c4ccc(CNC(=O)CCc5ccc6n5[B-](F)(F)[N+]5=C(c7ccc[nH]7)C=CC5=C6)cc4)cc3)nc2n(CCC)c1=O [XAC-3-NB590] | 0.77 | 1.20 | 1.22 | 0.70 | 0.96 | 0.95 | – | – | – | – | – | –
